From patent publication US20220204489A1, “ARYLSULFONYLTHIOPHENECARBOXAMIDES AND ARYLSULFONYLFURANCARBOXAMIDES AS Kv3 POTASSIUM CHANNEL ACTIVATORS” (H. Lundbeck A/S, priority 2019, published 2022)

Molecular target: T1, hKv3.1b (Homo sapiens, UniProt P48547)
T1 construct: expressed in transfected cells
T1 sequence (P48547 1-585 isoform P48547-2): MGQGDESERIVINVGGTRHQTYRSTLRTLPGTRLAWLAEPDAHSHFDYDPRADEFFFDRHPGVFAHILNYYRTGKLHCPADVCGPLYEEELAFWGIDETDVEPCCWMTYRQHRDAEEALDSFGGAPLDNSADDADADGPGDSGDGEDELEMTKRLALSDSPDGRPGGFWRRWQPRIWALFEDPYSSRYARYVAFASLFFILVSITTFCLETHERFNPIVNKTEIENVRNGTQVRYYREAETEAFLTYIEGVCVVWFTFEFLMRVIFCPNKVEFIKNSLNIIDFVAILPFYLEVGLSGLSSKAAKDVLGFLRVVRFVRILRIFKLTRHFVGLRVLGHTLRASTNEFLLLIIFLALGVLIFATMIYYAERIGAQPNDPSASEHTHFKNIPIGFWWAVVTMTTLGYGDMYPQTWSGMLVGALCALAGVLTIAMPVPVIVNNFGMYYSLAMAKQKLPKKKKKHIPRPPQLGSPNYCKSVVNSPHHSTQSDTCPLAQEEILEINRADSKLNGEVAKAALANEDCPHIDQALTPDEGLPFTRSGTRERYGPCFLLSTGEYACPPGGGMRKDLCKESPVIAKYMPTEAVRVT
Test: QPatch automated whole-cell patch-clamp, shift of voltage threshold for channel activation
Assay type: cell-based
Details: HEK-293 cells stably expressing hKv3.1b; for ECdelta5mV: concentration needed to shift the threshold 5 mV, read from fitted concentration response curve; for Max threshold shift: maximum absolute shift of activation threshold to more hyperpolarized potentials at tested concentrations (0.37, 1.11, 3.33, 10, 30 μM)
Experimental: HEK-293 cells stably expressing hKv3.1b was used for the experiments. Cells were cultured in DMEM medium supplemented with 10% Fetal Bovine Serum, 100 ug/mL Geneticidin and 100 u/mL Penicillin/Streptomycin (all from Gibco). Cells were grown to 80-90% confluency at 37° C. and 5% CO2. On the day of the experiment the cells were detached from the tissue culture flasks by Detachin and resuspended in serum free medium containing 25 mM HEPES and transferred to the cell hotel of the QPatch. The cells were used for experiments 0-5 hours after detachment.
Patch-clamp recordings were performed using the automated recording system QPatch-16× (Sophion Bioscience, Denmark). Cells were centrifuged, SFM removed and the cells were resuspended in extracellular buffer containing (in mM): 145 NaCl, 4 KCl, 1 MgCl2, 2 CaCl2, 10 HEPES and 10 glucose (added fresh on the day of experiment); pH 7.4 adjusted with NaOH, 305 mOsm adjusted with sucrose.
Single cell whole-cell recordings were carried out using an intracellular solution containing (in mM): 120 KCl, 32.25/10 KOH/EGTA, 5.374 CaCl2, 1.75 MgCl2, 10 HEPES, 4 Na2ATP (added fresh on the day), pH 7.2 adjusted with KOH, 395 mOsm adjusted with sucrose. Cell membrane potentials were held at −80 mV and currents were evoked by voltage steps (200 ms duration) from −70 mV to +10 mV (in 10 mV increments). Vehicle (0.33% DMSO) or increasing concentration of compound (1) were applied and the voltage protocol was run 3 times (resulting in 3 min cpd incubation time). Five increasing concentrations of compound (1) were applied to each cell.
Leak subtraction protocol was applied at −33% of the sweep amplitude, and serial resistance values were constantly monitored.
Any cell where serial resistance exceeded 25 MOhm, membrane resistance less than 200 MOhm or current size at −10 mV less than 200 pA was eliminated from the subsequent analysis.
Data analysis was performed using Sophion's QPatch assay software in combination with Microsoft Excel™ (Redmond, Wash., USA).
Current voltage relationships were plotted from the peak current at the individual voltage steps normalized to the vehicle addition at 10 mV. The voltage threshold for channel activation was defined as 5% activation of the peak current at 10 mV in presence of vehicle. The activity of the compounds was described as the ability to shift this current voltage relationship to more hyperpolarized potentials and is given as the maximum absolute shift possible at the tested concentrations (0.37, 1.11, 3.33, 10, 30 μM). Concentration response curves were plotted from the threshold shift at the individual concentrations and were fitted excel fit model 205 sigmodal dose-response model (fit=A+((B−A)/1+((C/x)^D)))), where A is the minimum value, B the maximum value, C the EC50 value and D the slope of the curve. The concentration needed to shift the threshold 5 mV was readout from this curve (ECdelta5 mV).

ECdelta5mV [nM]	Max threshold shift [mV]	SMILES
1200	24	Cc1ccc(S(=O)(=O)c2ccc(C(=O)NCc3cnc(C)cn3)s2)cc1 [Compound 1, 5-(4-methylbenzene-1-sulfonyl)-N-[(5-methylpyrazin-2-yl)methyl]thiophene-2-carboxamide]
1200	36	Cc1cnc(CNC(=O)c2ccc(S(=O)(=O)c3ccc(Cl)cc3)s2)cn1 [Compound 2, 5-(4-chlorobenzene-1-sulfonyl)-N-[(5-methylpyrazin-2-yl)methyl]thiophene-2-carboxamide]
2200	19	Cc1cnc(CNC(=O)c2ccc(S(=O)(=O)c3ccc(F)cc3)s2)cn1 [Compound 3, 5-(4-fluorobenzene-1-sulfonyl)-N-[(5-methylpyrazin-2-yl)methyl]thiophene-2-carboxamide]
1200	30	Cc1cnc(CNC(=O)c2ccc(S(=O)(=O)c3ccccc3C)s2)cn1 [Compound 4, 5-(2-methylbenzene-1-sulfonyl)-N-[(5-methylpyrazin-2-yl)methyl]thiophene-2-carboxamide]
2100	21	Cc1ccc(S(=O)(=O)c2ccc(C(=O)NCc3ccc(C)nc3)s2)cc1 [Compound 5, 5-(4-methylbenzene-1-sulfonyl)-N-[(6-methylpyridin-3-yl)methyl]thiophene-2-carboxamide]
3100	12	Cc1ccc(S(=O)(=O)c2ccc(C(=O)NCc3ncc(C)cn3)s2)cc1 [Compound 6, 5-(4-methylbenzene-1-sulfonyl)-N-[(5-methylpyrimidin-2-yl)methyl]thiophene-2-carboxamide]
2500	17	Cc1ccc(S(=O)(=O)c2ccc(C(=O)NCc3ccn(C)n3)s2)cc1 [Compound 7, 5-(4-methylbenzene-1-sulfonyl)-N-[(1-methyl-1H-pyrazol-3-yl)methyl]thiophene-2-carboxamide]
2900	16	Cc1ccc(S(=O)(=O)c2ccc(C(=O)NCc3cccnc3)s2)cc1 [Compound 8, 5-(4-methylbenzene-1-sulfonyl)-N-[(pyridin-3-yl)methyl]thiophene-2-carboxamide]
2600	17	Cc1ccc(S(=O)(=O)c2ccc(C(=O)NCc3cnn(C)c3)s2)cc1 [Compound 9, 5-(4-methylbenzene-1-sulfonyl)-N-[(1-methyl-1H-pyrazol-4-yl)methyl]thiophene-2-carboxamide]
1200	25	Cc1ccc(S(=O)(=O)c2ccc(C(=O)NCc3cnccn3)s2)cc1 [Compound 10, 5-(4-methylbenzene-1-sulfonyl)-N-[(pyrazin-2-yl)methyl]thiophene-2-carboxamide]
2500	17	Cc1ccc(S(=O)(=O)c2ccc(C(=O)NCc3nc(C)no3)s2)cc1 [Compound 11, 5-(4-methylbenzene-1-sulfonyl)-N-[(3-methyl-1,2,4-oxadiazol-5-yl)methyl]thiophene-2-carboxamide]
2600	14	Cc1ccc(S(=O)(=O)c2ccc(C(=O)NCc3cc(C)no3)s2)cc1 [Compound 13, 5-(4-methylbenzene-1-sulfonyl)-N-[(3-methyl-1,2-oxazol-5-yl)methyl]thiophene-2-carboxamide]
2000	22	Cc1ccc(S(=O)(=O)c2ccc(C(=O)NCc3ccc(C)nn3)s2)cc1 [Compound 14, 5-(4-methylbenzene-1-sulfonyl)-N-[(6-methylpyridazin-3-yl)methyl]thiophene-2-carboxamide]
3100	20	Cc1ccc(S(=O)(=O)c2ccc(C(=O)NCc3ncn(C)n3)s2)cc1 [Compound 15, 5-(4-methylbenzene-1-sulfonyl)-N-[(1-methyl-1H-1,2,4-triazol-3-yl)methyl]thiophene-2-carboxamide]
1500	24	COc1ccc(S(=O)(=O)c2ccc(C(=O)NCc3cnc(C)cn3)s2)cc1 [Compound 16, 5-(4-methoxybenzene-1-sulfonyl)-N-[(5-methylpyrazin-2-yl)methyl]thiophene-2-carboxamide]
1700	24	Cc1ccc(S(=O)(=O)c2ccc(C(=O)NCc3cnc(C)nc3)s2)cc1 [Compound 17, 5-(4-methylbenzene-1-sulfonyl)-N-[(2-methylpyrimidin-5-yl)methyl]thiophene-2-carboxamide]
2400	17	Cc1cnc(CNC(=O)c2ccc(S(=O)(=O)c3ccccc3)s2)cn1 [Compound 18, 5-(benzenesulfonyl)-N-[(5-methylpyrazin-2-yl)methyl]thiophene-2-carboxamide]
3800	14	Cc1cc(F)ccc1S(=O)(=O)c1ccc(C(=O)NCc2cnccn2)s1 [Compound 19, 5-(4-fluoro-2-methylbenzene-1-sulfonyl)-N-[(pyrazin-2-yl)methyl]thiophene-2-carboxamide]
1900	29	Cc1cnc(CNC(=O)c2ccc(S(=O)(=O)c3ccc(F)cc3C)s2)cn1 [Compound 20, 5-(4-fluoro-2-methylbenzene-1-sulfonyl)-N-[(5-methylpyrazin-2-yl)methyl]thiophene-2-carboxamide]
1700	32	Cc1cnc(CNC(=O)c2ccc(S(=O)(=O)c3ccc(C(F)F)cc3)s2)cn1 [Compound 21, 5-[4-(difluoromethyl)benzene-1-sulfonyl]-N-[(5-methylpyrazin-2-yl)methyl]thiophene-2-carboxamide]
2100	27	Cc1ccc(S(=O)(=O)c2ccc(C(=O)NCc3cnc(C)cn3)o2)cc1 [Compound 22, 5-(4-methylbenzene-1-sulfonyl)-N-[(5-methylpyrazin-2-yl)methyl]furan-2-carboxamide]
2400	17	Cc1ccc(S(=O)(=O)c2ccc(C(=O)NCc3ccn(C)n3)o2)cc1 [Compound 23, 5-(4-methylbenzene-1-sulfonyl)-N-[(1-methyl-1H-pyrazol-3-yl)methyl]furan-2-carboxamide]
2700	20	COc1ccc(S(=O)(=O)c2ccc(C(=O)NCc3cnccn3)o2)cc1 [Compound 24, 5-(4-methoxybenzene-1-sulfonyl)-N-[(pyrazin-2-yl)methyl]furan-2-carboxamide]
4100	15	Cc1ccc(S(=O)(=O)c2ccc(C(=O)NCc3cc(F)ccn3)o2)cc1 [Compound 25, N-[(4-fluoropyridin-2-yl)methyl]-5-(4-methylbenzene-1-sulfonyl)furan-2-carboxamide]
